Test results: patent publication EP0086092A2, “Antifungal compositions” (priority 1982, dated 1983)
Where “and” joins values, the source holds several entries; their conditions need not be identical. Identical values can stand only once. Marks after values point to notes of the source that are not given here.

Test system: Candida albicans B 311
Assay: disc diffusion, zone of inhibition on seeded agar plates
Format: cell-based
Conditions: for Zone Size: Table I, glucose as carbon source, composition of 1 unit by weight aculeacin A + 5 units fatty acid; for Zone Size / Zone Size YNB agar: YNB agar; for Zone Size / Zone Size Sabouarud Agar / Zone Size YNB agar / Zone Size B 311: 16-18 h; for Zone Size / Zone Size B 311: 28-37°C; for Zone Size Sabouarud Agar / Zone Size YNB agar: Table II, 37°C; for Zone Size Sabouarud Agar: Sabouarud dextrose agar; for Zone Size YNB agar: lysine; for increase in the intrinsic activity of aculeacin A: Table II test
Protocol: The antifungal activity of aculeacin A and the compositions of aculeacin A and fatty acids was measured by disc diffusion.
The effects of a number of fatty acids on the antifungal activity of aculeacin A were determined by utilizing seeded plates of Candida albicans B 311 in yeast nitrogen base (YNB) agar (Difco) with glucose as the carbon source. A composition containing one unit by weight of aculeacin A and 5 units of fatty acid or the sodium salt thereof was spotted on the seeded plates and the size of the zone of inhibition after 16-18 hours incubation at 28-37 °C was measured.
Additional fatty acids were tested to determine , if they increased the intrinsic activity of aculeacin A against C. albicans B 311 utilizing seeded plates of YNB agar (Difco) with lysine as the carbon source and seeded plates of Sabouarud dextrose agar (Difco). Compositions containg one µg of aculeacin A and various amounts of the fatty acid was spotted on the seeded plates and the size of the zone of inhibition after 16-18 hours incubation at 37 °C was measured.
The antifungal effects of compositions containing a single amount of oleic acid as the sodium salt while varying the amounts of aculeacin A were determined by utilizing seeded plates of Candida albicans B 311 in Sabouarud dextrose agar and measuring the zone of inhibition after 16-18 hours incubation at 28-37°C.
The antifungal effects of compositions containing a single amount of aculeacin A while varying the amounts. of oleic acid as the sodium salt were determined by utilizing seeded plates of Candida albicans strains B 311, BC 759 and B 3153A and measuring the zone of inhibition after 16-18 hours at 28-37°C. This test was also performed with linoleic acid and linolenic acid.
The seeded plates of Candida albicans strains B 311, BC 759, and B 3153A were prepared by inoculating 50 ml of trypticase soy broth (BBL) with one ml of the preserved frozen culture and incubating the inoculum at 37°C for 7 hours on a rotary shaker. Two milliliters of this culture were used to inoculate one liter of Sabouarud dextrose agar (Difco) at 50°C and 15 milliliters of the resultant medium poured into 150 mm petri-dishes.

[1] = aculeacin A 0 µg, fatty acid 250 µg alone
[2] = aculeacin A 0 µg, fatty acid 500 µg alone
[3] = aculeacin A 0 µg, fatty acid 1000 µg alone
[4] = composition of aculeacin A 1 µg + fatty acid 250 µg
[5] = composition of aculeacin A 1 µg + fatty acid 500 µg
[6] = composition of aculeacin A 1 µg + fatty acid 1000 µg
[7] = Tables IV-b, IV-c, aculeacin A 0 µg, fatty acid 28.1 µg alone
[8] = Tables IV-b, IV-c, aculeacin A 0 µg, fatty acid 56.2 µg alone
[9] = Tables IV-b, IV-c, aculeacin A 0 µg, fatty acid 112.5 µg alone
[10] = Tables IV-b, IV-c, aculeacin A 0.625 µg + fatty acid 28.1 µg
[11] = Tables IV-b, IV-c, aculeacin A 0.625 µg + fatty acid 56.2 µg
[12] = Tables IV-b, IV-c, aculeacin A 0.625 µg + fatty acid 112.5 µg
[13] = aculeacin A 0 µg, fatty acid 2000 µg alone
[14] = composition of aculeacin A 1 µg + fatty acid 2000 µg
[15] = aculeacin A 0 µg, fatty acid 50 µg alone
[16] = aculeacin A 0 µg, fatty acid 100 µg alone
[17] = aculeacin A 0 µg, fatty acid 200 µg alone
[18] = composition of aculeacin A 1 µg + fatty acid 50 µg
[19] = composition of aculeacin A 1 µg + fatty acid 100 µg
[20] = composition of aculeacin A 1 µg + fatty acid 200 µg

## CCCCCCCCCCCCCCCC(=O)O [Palmitic Acid]
  Zone Size: 15 mm

## CCCCCCCC(=O)O [Caprylic Acid]
  Zone Size: 16 mm

## CCCCCCCCCCCCCCCCCCCCCC(=O)O [Behenic Acid]
[1]
  Zone Size Sabouarud Agar: 0 mm
  Zone Size YNB agar: 0 mm
[2]
  Zone Size Sabouarud Agar: 0 mm
  Zone Size YNB agar: 0 mm
[3]
  Zone Size Sabouarud Agar: 0 mm
  Zone Size YNB agar: 0 mm
[4]
  Zone Size Sabouarud Agar: 15 mm
  Zone Size YNB agar: 14 mm
[5]
  Zone Size Sabouarud Agar: 14 mm
  Zone Size YNB agar: 14 mm
[6]
  Zone Size Sabouarud Agar: 20 mm
  Zone Size YNB agar: 15 mm

## CCCCCC/C=C\CCCCCCCC(=O)O [Palmitoleic Acid]
  Zone Size: 26 mm

## CC/C=C\C/C=C\C/C=C\CCCCCCCC(=O)O [Linolenic Acid]
  Zone Size: 22 mm
[7]
  Zone Size B 311: 0 mm
[8]
  Zone Size B 311: 0 mm
[9]
  Zone Size B 311: 0 mm
[10]
  Zone Size B 311: 20 mm
[11]
  Zone Size B 311: 19 mm
[12]
  Zone Size B 311: 19 mm

## CCCCCCCC/C=C\CCCCCCCCCCCC(=O)O [Erucic Acid]
[1]
  Zone Size Sabouarud Agar: 0 mm
  Zone Size YNB agar: 0 mm
[2]
  Zone Size Sabouarud Agar: 0 mm
  Zone Size YNB agar: 0 mm
[3]
  Zone Size Sabouarud Agar: 0 mm
  Zone Size YNB agar: 0 mm
[5]
  Zone Size Sabouarud Agar: 17 mm
  Zone Size YNB agar: 15 mm and 17 mm
[6]
  Zone Size Sabouarud Agar: Trace
  Zone Size YNB agar: 15 mm

## γ-Linoleic Acid
[2]
  Zone Size Sabouarud Agar: 0 mm
  Zone Size YNB agar: 0 mm
[3]
  Zone Size Sabouarud Agar: 0 mm
  Zone Size YNB agar: 0 mm
[13]
  Zone Size Sabouarud Agar: 0 mm
  Zone Size YNB agar: 0 mm
[5]
  Zone Size Sabouarud Agar: 20 mm
  Zone Size YNB agar: 14 mm
[6]
  Zone Size Sabouarud Agar: 24 mm
  Zone Size YNB agar: 15 mm
[14]
  Zone Size Sabouarud Agar: 25 mm
  Zone Size YNB agar: 22 mm
Composition of 2000 units by weight fatty acid to one unit aculeacin A
  increase in the intrinsic activity of aculeacin A: surprising increase in the intrinsic activity of aculeacin A

## CCCCC/C=C\C/C=C\CCCCCCCC(=O)O [Linoleic Acid]
  Zone Size: 23 mm
Table IV-b, aculeacin A 0 µg, fatty acid 225 µg alone
  Zone Size B 311: Trace
Table IV-b, aculeacin A 0.625 µg + fatty acid 225 µg
  Zone Size B 311: 19 mm
[7]
  Zone Size B 311: 0 mm
[8]
  Zone Size B 311: 0 mm
[9]
  Zone Size B 311: 0 mm
[10]
  Zone Size B 311: 22 mm
[11]
  Zone Size B 311: 22 mm
[12]
  Zone Size B 311: 21 mm

## CCCCCCCCCCCCCCCCCC(=O)O [Stearic Acid]
  Zone Size: 15 mm

## CCCCCC/C=C/CCCCCCCCCC(=O)O [Vaccinic Acid]
[2]
  Zone Size Sabouarud Agar: 0 mm
  Zone Size YNB agar: 0 mm
[3]
  Zone Size Sabouarud Agar: 0 mm
  Zone Size YNB agar: 0 mm
[13]
  Zone Size Sabouarud Agar: 0 mm
  Zone Size YNB agar: 0 mm
[5]
  Zone Size Sabouarud Agar: 25 mm
  Zone Size YNB agar: 17 mm
[6]
  Zone Size Sabouarud Agar: 25 mm
  Zone Size YNB agar: 17 mm
[14]
  Zone Size Sabouarud Agar: 26 mm
  Zone Size YNB agar: 17 mm

## CCCCC/C=C/C/C=C/CCCCCCCC(=O)O [Linoelaidic Acid]
[1]
  Zone Size Sabouarud Agar: 0 mm
  Zone Size YNB agar: 0 mm
[2]
  Zone Size Sabouarud Agar: 0 mm
  Zone Size YNB agar: 0 mm
[3]
  Zone Size Sabouarud Agar: 0 mm
  Zone Size YNB agar: 0 mm
[4]
  Zone Size Sabouarud Agar: 20* mm
  Zone Size YNB agar: 26 mm
[5]
  Zone Size Sabouarud Agar: 20* mm
  Zone Size YNB agar: 17 mm
[6]
  Zone Size Sabouarud Agar: 24* mm
  Zone Size YNB agar: 16 mm
Composition of 250 units by weight fatty acid to one unit aculeacin A
  increase in the intrinsic activity of aculeacin A: surprising increase in the intrinsic activity of aculeacin A

## CCCCCCCCCCC(O)C(=O)O (stereo not drawn) [α-Hydroxy Lauric Acid]
[1]
  Zone Size Sabouarud Agar: Trace
  Zone Size YNB agar: Trace
[2]
  Zone Size Sabouarud Agar: 10 (hazy) mm
  Zone Size YNB agar: Trace
[3]
  Zone Size Sabouarud Agar: 10 (hazy) mm
  Zone Size YNB agar: Trace
[4]
  Zone Size Sabouarud Agar: 15 mm
  Zone Size YNB agar: 20 mm
[5]
  Zone Size Sabouarud Agar: 15 mm
  Zone Size YNB agar: 24 mm
[6]
  Zone Size Sabouarud Agar: 20 mm
  Zone Size YNB agar: 25 mm

## CCCCCC/C=C/CCCCCCCC(=O)O [Palmitelaidic Acid]
[2]
  Zone Size Sabouarud Agar: 0 mm
  Zone Size YNB agar: 0 mm
[3]
  Zone Size Sabouarud Agar: 0 mm
  Zone Size YNB agar: 0 mm
[13]
  Zone Size Sabouarud Agar: 0 mm
  Zone Size YNB agar: 0 mm
[5]
  Zone Size Sabouarud Agar: 30 mm
  Zone Size YNB agar: 20 mm
[6]
  Zone Size Sabouarud Agar: 32 mm
  Zone Size YNB agar: 20 mm
[14]
  Zone Size Sabouarud Agar: 25 mm
  Zone Size YNB agar: 22 mm

## Homo-γ-Linoleic Acid
[15]
  Zone Size Sabouarud Agar: 0 mm
  Zone Size YNB agar: 0 mm
[16]
  Zone Size Sabouarud Agar: 0 mm
  Zone Size YNB agar: 0 mm
[17]
  Zone Size Sabouarud Agar: 0 mm
  Zone Size YNB agar: 0 mm
[18]
  Zone Size Sabouarud Agar: 15 mm
  Zone Size YNB agar: 15* mm
[19]
  Zone Size Sabouarud Agar: 15 mm
  Zone Size YNB agar: 15* mm
[20]
  Zone Size Sabouarud Agar: 15 mm
  Zone Size YNB agar: 17* mm

## CCCCCCCCCCCC(=O)O [Lauric Acid]
  Zone Size: 22 mm

## CCCCCCCC/C=C/CCCCCCCC(=O)O [Eladic Acid]
[1]
  Zone Size Sabouarud Agar: 0 mm
  Zone Size YNB agar: 0 mm
[2]
  Zone Size Sabouarud Agar: 0 mm
  Zone Size YNB agar: 0 mm
[3]
  Zone Size Sabouarud Agar: 0 mm
  Zone Size YNB agar: 0 mm
[4]
  Zone Size Sabouarud Agar: 18 mm
  Zone Size YNB agar: 13 mm
[5]
  Zone Size Sabouarud Agar: 15 mm
  Zone Size YNB agar: 13 mm
[6]
  Zone Size Sabouarud Agar: 13 mm
  Zone Size YNB agar: 13 mm

## CCCCCCCCCCCCCC(=O)O [Myristic Acid]
  Zone Size: 16 mm

## CCCCCCCCCC(=O)O [Decanoic Acid]
  Zone Size: 17 mm
